This passage reports IC50 and CC50 results from article PMC3716607, “Inhibition of Histo-blood Group Antigen Binding as a Novel Strategy to Block Norovirus Infections” (PLoS ONE, 2013).

Like-named read-outs stand apart in the source and are kept apart here.

Data set [1] addresses VA387 P dimers binding to type A and B saliva HBGAs (Norovirus GII.4 (Human calicivirus NLV/VA98387/1998), UniProt Q913Z3). Briefly: biochemical. The arrangement: species or system GII.4 NoV (VA387). As for the experimental part:
Saliva-based NoV-HBGA binding assays were performed as described previously using P dimers of VA387 (GII.4) as NoV surrogates and saliva samples and/or synthetic oligosaccharides as HBGA sources, [34], [35]. Briefly, synthetic oligosaccharides and/or boiled saliva samples with defined HBGAs phenotype were coated on 96-well microtiter plates, after blocking with nonfat milk, P dimer of VA387 were added. The bound P dimer was detected using a guinea pig antiserum against NoVs VLPs, followed by the addition of horseradish peroxidase (HRP)-conjugated goat anti-guinea pig IgG. The bound HRP conjugates were colorized by the TMB kit (Kirkegaard & Perry Laboratories), which was read an EIA spectrum reader (Tecan). The synthetic oligosaccharide-PAA conjugates (2 µg/ml, GlycoTech Corporation, Rockville, MD) were captured to a microtiter plate through coated streptavidin (5 µg/ml).
Blocking effects of the hit compounds were measured by a pre-incubation of the P dimers with the compounds at given concentrations for 30 min before the P dimers were added to the coated saliva samples or HBGA oligosaccharides in a binding assay. The blocking activity of a compound was defined as its concentration yielding 50% inhibition (IC50) in the binding assay. IC50 calculation was performed using Probit regression analysis and correlation analysis between IC50 and Ki values was performed with nonparametric Spearman’s r (two-tailed) by using SPSS statistical software version 13.0 (SPSS, Chicago, IL).

The nature of data set [2]: MTS cytotoxicity assay. The format is cell-based, human (HeLa); rhesus monkey (LLC-MK2). As for the experimental part:
This assay was performed using CellTiter 96 aqueous nonradioactive cell proliferation kits (Promega, Madison, WI) as described elsewhere. Briefly, HeLa and LLC-MK2 cells were seeded at 5×10^4 cells/ml onto a 96-well plate overnight. After an incubation with each compound at various concentrations for 3 days (the compound was added one time at the beginning of the incubation), the culture medium was replaced with fresh one with 100 µl of MTS-phenazine methosulfate/well. After a further incubation at 37°C for 2 h, the color products of MTS were measured with a plate reader at 490 nm. The cytotoxicities of individual compounds were indicated by the decrease in cellular reduction of MTS into the colored product. The 50% cytotoxic concentrations (CC50 s) were determined as the concentrations of the compounds that caused 50% inhibition of cell growth compared with that of control cells without a compound.
In general terms: Tetrazolium dyes change colour on reduction, which living cells bring about.

The mark [3] stands for this setting: IC50 Saliva A, blocking assay, type A saliva, mean ± standard deviation.
Where [4] appears, read: IC50 Saliva B, blocking assay, type B saliva, mean ± standard deviation.
Where [5] appears, read: Activity (IC50), against binding of VA387 to the A and B saliva.
The mark [6] stands for this setting: 3 days incubation, HeLa and LLC-MK2 cells, cell line not given, read-out: CC50.

Sequence of VA387 P dimers binding to type A and B saliva HBGAs (Q913Z3 entry or part of it): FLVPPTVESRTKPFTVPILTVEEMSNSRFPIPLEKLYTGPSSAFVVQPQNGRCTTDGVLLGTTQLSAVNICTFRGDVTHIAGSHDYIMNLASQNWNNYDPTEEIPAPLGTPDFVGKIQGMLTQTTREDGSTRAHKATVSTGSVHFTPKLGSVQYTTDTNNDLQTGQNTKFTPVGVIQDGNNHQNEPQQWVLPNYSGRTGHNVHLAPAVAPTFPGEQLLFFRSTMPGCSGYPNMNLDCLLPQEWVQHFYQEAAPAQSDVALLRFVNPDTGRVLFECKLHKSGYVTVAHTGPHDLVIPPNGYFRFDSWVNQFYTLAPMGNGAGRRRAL

In general, IC50 refers to the concentration needed to halve the response being measured. In the case of `CC1(C)CC(=O)C2=C(C1)c1c(ccc3ccccc13)NC2` [ZINC00128665], the IC50 in data set [1] (setting [3]) came out at 14.1 ± 0.53 µM; in data set [1] (setting [4]), 14.9 ± 0.71 µM.
For orientation: CC50 means the concentration at which the toxic effect on the cells reaches its halfway point. With `C/C(=N/O)C1=CCC2C3CC[C@H]4C/C(=N\O)CC[C@]4(C)C3CC[C@]12C` (some centres unmarked) [ZINC04041115], the IC50 in data set [1] (setting [5]) was 1 to 10 µM; in data set [1] (setting [3]) it was 2.38 ± 0.15 µM; in data set [1] (setting [4]), 2.54 ± 0.21 µM. The compound also yielded a CC50 at 3 days in data set [2] of 203 µM.
For `O=C1CC(c2ccc([N+](=O)[O-])cc2)c2ccc3ccccc3c2N1` (centres unmarked) [ZINC00124088], the figures for the IC50 in data set [1] (setting [3]) and in data set [1] (setting [4]) were 24.5 ± 0.98 µM and 26.3 ± 1.24 µM, respectively.
In the case of `O=C(O)c1ccc(C2Nc3c(F)cccc3C3C=CCC32)cc1` (centres unmarked) [ZINC04298453], the IC50 in data set [1] (setting [3]) turned out to be 38 ± 2.01 µM; in data set [1] (setting [4]) it was 39.4 ± 1.53 µM.
As for `CC(=O)C1CCC2C3CCC4CC(O)CCC4(C)C3CCC12C` (centres unmarked) [ZINC05260830], the IC50 in data set [1] (setting [5]) lay within 1 to 10 µM. Also, the CC50 at 3 days in data set [2] (setting [6]) is 267 µM.
Turning to `CC(=O)OCC(=O)C1CCC2C3CC=C4CC(O)CCC4(C)C3CCC12C` (centres unmarked) [ZINC00652738], the IC50 in data set [1] (setting [3]) was found to be 30.9 ± 1.04 µM; in data set [1] (setting [4]), 30.1 ± 1.35 µM.
For the compound `CC12CCC(=NOCC(=O)NCC(=O)O)C=C1CCC1C2CCC2(C)C(O)CCC12` (centres unmarked) [ZINC04084183], in data set [1] (setting [5]), the IC50 is 10 to 20 µM.
Take `Cc1noc2c1C1(C)CCC3C(CC=C4CC(O)CCC43C)C1C2` (centres unmarked) [ZINC04014899]: the IC50 in data set [1] (setting [3]) stood at 33.9 ± 1.67 µM; in data set [1] (setting [4]) it was 34.5 ± 1.93 µM.
Turning to `CC(CCC(=O)O)C1CCC2C3CC=C4CC(O)CCC4(C)C3CCC12C` (centres unmarked) [ZINC04831336], the IC50 is 1 to 10 µM in data set [1] (setting [5]), 7.63 ± 0.27 µM in data set [1] (setting [3]) and 7.65 ± 0.33 µM in data set [1] (setting [4]). Also, the CC50 at 3 days in data set [2] (setting [6]) was 225 µM.
With `CC12CCC3C(CCC4CC(=O)CCC43C)C1CCC2O` (centres unmarked) [ZINC03814360], the results for the IC50 in data set [1] (setting [3]) and in data set [1] (setting [4]) were 36.9 ± 1.47 µM and 35.7 ± 1.06 µM, respectively.
In the case of `CC(=O)C1=CCC2C3CC=C4CC(O)CCC4(C)C3CCC12C` (centres unmarked) [ZINC00968234], in data set [1] (setting [5]), the IC50 was 20 to 40 µM.
For the compound `O=[N+]([O-])c1ccc2c(c1)C1C=CCC1C(C1CC=CCC1)N2` (centres unmarked) [ZINC04725822], the values for the IC50 in data set [1] (setting [3]) and in data set [1] (setting [4]) were 13.2 ± 1.04 µM and 13.1 ± 0.87 µM, respectively.
For `COc1cc([N+](=O)[O-])cc2c1NC(c1ccccn1)C1CC=CC21` (centres unmarked) [ZINC04450155], the half-inhibitory concentration (IC50) was 20 to 40 µM in data set [1] (setting [5]), 24.2 ± 0.74 µM in data set [1] (setting [3]) and 24.3 ± 0.87 µM in data set [1] (setting [4]).
On to `CC1CCc2c(sc3ncn(C(C)C(=O)N/N=C/c4c(O)ccc5ccccc45)c(=O)c23)C1` (centres unmarked) [ZINC06166484], for which the IC50 in data set [1] (read-out: IC50 Saliva A, blocking assay, type A saliva, mean ± standard deviation) is 17 ± 1.06 µM; in data set [1] (read-out: IC50 Saliva B, blocking assay, type B saliva, mean ± standard deviation), 16.8 ± 0.87 µM.
Regarding `CC12CCC(O)C=C1CCC1C2CCC2(C)C1CCC21CCC(=O)O1` (centres unmarked) [ZINC04081424], the IC50 in data set [1] (setting [5]) lay in the range of 20 to 40 µM.
For `C[C@]12CCC3C(CC[C@H]4CC=CC[C@]34C)C1CC/C2=N/NC(N)=S` (some centres unmarked) [ZINC04026813], the IC50 in data set [1] (setting [5]) was 1 to 10 µM; in data set [1] (setting [3]) it was 8.7 ± 1.03 µM; in data set [1] (setting [4]), 8.97 ± 0.63 µM. The same compound returned a CC50 at 3 days in data set [2] of 212 µM.
As for `Cc1ccc(C2CC(=O)Nc3c2ccc2ccccc32)cc1[N+](=O)[O-]` (centres unmarked) [ZINC00181174], the IC50 in data set [1] (setting [3]) was 33.5 ± 0.68 µM; in data set [1] (setting [4]) it was 33.7 ± 1.27 µM.
For the compound `C[C@]12CC[C@H](O)C[C@@H]1CC[C@@H]1[C@@H]2CC[C@@]2(C)[C@H]1CC[C@]2(C)O` [ZINC05223451], the IC50 is 1 to 10 µM in data set [1] (setting [5]), 3.37 ± 0.13 µM in data set [1] (setting [3]) and 3.39 ± 0.24 µM in data set [1] (setting [4]). Also, the CC50 at 3 days in data set [2] (setting [6]) was determined as 171 µM.
With `Nc1ccc2c(c1)C1C=CCC1C(c1ccc([N+](=O)[O-])cc1)N2` (centres unmarked) [ZINC04095376], the IC50 in data set [1] (setting [3]) came to 12.6 ± 0.87 µM; in data set [1] (setting [4]), 12.8 ± 0.64 µM.
